Where “and” joins values, the source holds several entries; their conditions need not be identical. Equal entries are not always repeated.
How the values were obtained:
non-growing UPEC CFT073 = assay: Dose-dependent killing analysis (CFU spot-plating) of stationary-phase UPEC; type: cell-based, Escherichia coli
Procedure, shortened: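 Non-growing (stationary-phase) UPEC CFT073 treated with compounds in 96-well format at 200 μl, then 10-fold serially diluted in PBS and 10 μl spots plated on LB agar. Plates incubated overnight at 37 °C; colonies counted at lowest resolvable dilution to give CFU. Three biological replicates.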

[1] = system: non-growing P. aeruginosa DSM1117; assay: Dose-dependent killing analysis (CFU spot-plating) of stationary-phase P. aeruginosa; type: cell-based, Pseudomonas aeruginosa; settings: P. aeruginosa; for log10(CFU/ml) of treated nongrowing bacteria (single replicates): before treatment 8.887
Procedure, shortened: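 Stationary-phase P. aeruginosa DSM1117 treated for 24 h in 1:4 CA-MHB, pH 7.4, across compound doses. Survivors counted after 10-fold PBS dilution, spot-plating on LB agar and overnight growth at 37 °C; three biological replicates.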

[2] = system: intracellular S. flexneri 5a M90T in TC7 cells; assay: microbe, parasite or virus in culture; type: cell-based, Shigella flexneri
[3] = system: non-growing S. aureus DSM2569; assay: Dose-dependent killing analysis (CFU spot-plating) of stationary-phase S. aureus; type: cell-based, Staphylococcus aureus; settings: S. aureus; for log10(CFU/ml) of treated nongrowing bacteria (single replicates): before treatment 9,097
Procedure, shortened: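 Stationary-phase S. aureus DSM2569 was grown and treated for 24 h in 1:4 CA-MHB at pH 7.4. Treated samples were serially diluted 10-fold in PBS and spot-plated on LB agar, which was incubated overnight at 37 °C. Survivors were counted as CFU over three biological replicates.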

NC1CCN(c2nc3c(cc2F)c(=O)c(C(=O)O)cn3-c2ccc(F)cc2F)C1 (centres unmarked) [Tosufloxacin]
killing, average Δlog10(CFU/ml) (non-growing UPEC CFT073; E. coli in 1:4 CA-MHB (pH 7.4), drug concentration 0.25): 0.576 log10(CFU/ml) | log10(CFU/ml) of treated nongrowing bacteria (single replicates) (non-growing UPEC CFT073; E. coli in 1:4 CA-MHB (pH 7.4), drug concentration 0.25, before treatment 8.977): 8.477 log10(CFU/ml) and 8.279 log10(CFU/ml) and 8.447 log10(CFU/ml) | killing, average Δlog10(CFU/ml) (non-growing UPEC CFT073; E. coli in 1:4 CA-MHB (pH 7.4), drug concentration 0.5): 0.736 log10(CFU/ml) | log10(CFU/ml) of treated nongrowing bacteria (single replicates) (non-growing UPEC CFT073; E. coli in 1:4 CA-MHB (pH 7.4), drug concentration 0.5, before treatment 8.977): 8.602 log10(CFU/ml) and 8.041 log10(CFU/ml) and 8.079 log10(CFU/ml) | killing, average Δlog10(CFU/ml) (non-growing UPEC CFT073; E. coli in 1:4 CA-MHB (pH 7.4), drug concentration 1): 1.185 log10(CFU/ml) | log10(CFU/ml) of treated nongrowing bacteria (single replicates) (non-growing UPEC CFT073; E. coli in 1:4 CA-MHB (pH 7.4), drug concentration 1, before treatment 8.977): 8.301 log10(CFU/ml) and 7.845 log10(CFU/ml) and 7.230 log10(CFU/ml) | killing, average Δlog10(CFU/ml) (non-growing UPEC CFT073; E. coli in 1:4 CA-MHB (pH 7.4), drug concentration 2.5): 2.064 log10(CFU/ml) | log10(CFU/ml) of treated nongrowing bacteria (single replicates) (non-growing UPEC CFT073; E. coli in 1:4 CA-MHB (pH 7.4), drug concentration 2.5, before treatment 8.977): 7.041 log10(CFU/ml) and 6.699 log10(CFU/ml) and 7.000 log10(CFU/ml) | killing, average Δlog10(CFU/ml) (non-growing UPEC CFT073; E. coli in 1:4 CA-MHB (pH 7.4), drug concentration 5): 2.460 log10(CFU/ml) | log10(CFU/ml) of treated nongrowing bacteria (single replicates) (non-growing UPEC CFT073; E. coli in 1:4 CA-MHB (pH 7.4), drug concentration 5, before treatment 8.977): 6.845 log10(CFU/ml) and 6.230 log10(CFU/ml) and 6.477 log10(CFU/ml) | killing, average Δlog10(CFU/ml) (non-growing UPEC CFT073; E. coli in 1:4 CA-MHB (pH 7.4), drug concentration 10): 2.856 log10(CFU/ml) | log10(CFU/ml) of treated nongrowing bacteria (single replicates) (non-growing UPEC CFT073; E. coli in 1:4 CA-MHB (pH 7.4), drug concentration 10, before treatment 8.977): 6.778 log10(CFU/ml) and 5.380 log10(CFU/ml) and 6.204 log10(CFU/ml) | killing, average Δlog10(CFU/ml) (non-growing UPEC CFT073; E. coli in LPM (pH 5.5), drug concentration 0.25): -0.097 log10(CFU/ml) | log10(CFU/ml) of treated nongrowing bacteria (single replicates) (non-growing UPEC CFT073; E. coli in LPM (pH 5.5), drug concentration 0.25, before treatment 7.350): 7.342 log10(CFU/ml) and 7.000 log10(CFU/ml) and 8.000 log10(CFU/ml) | killing, average Δlog10(CFU/ml) (non-growing UPEC CFT073; E. coli in LPM (pH 5.5), drug concentration 0.5): 0.356 log10(CFU/ml) | log10(CFU/ml) of treated nongrowing bacteria (single replicates) (non-growing UPEC CFT073; E. coli in LPM (pH 5.5), drug concentration 0.5, before treatment 7.350): 7.079 log10(CFU/ml) and 6.000 log10(CFU/ml) and 7.903 log10(CFU/ml) | killing, average Δlog10(CFU/ml) (non-growing UPEC CFT073; E. coli in LPM (pH 5.5), drug concentration 1): 0.195 log10(CFU/ml) | log10(CFU/ml) of treated nongrowing bacteria (single replicates) (non-growing UPEC CFT073; E. coli in LPM (pH 5.5), drug concentration 1, before treatment 7.350): 7.279 log10(CFU/ml) and 6.342 log10(CFU/ml) and 7.845 log10(CFU/ml) | killing, average Δlog10(CFU/ml) (non-growing UPEC CFT073; E. coli in LPM (pH 5.5), drug concentration 2.5): 0.183 log10(CFU/ml) | log10(CFU/ml) of treated nongrowing bacteria (single replicates) (non-growing UPEC CFT073; E. coli in LPM (pH 5.5), drug concentration 2.5, before treatment 7.350): 7.079 log10(CFU/ml) and 6.519 log10(CFU/ml) and 7.903 log10(CFU/ml) | killing, average Δlog10(CFU/ml) (non-growing UPEC CFT073; E. coli in LPM (pH 5.5), drug concentration 5): 0.243 log10(CFU/ml) | log10(CFU/ml) of treated nongrowing bacteria (single replicates) (non-growing UPEC CFT073; E. coli in LPM (pH 5.5), drug concentration 5, before treatment 7.350): 7.146 log10(CFU/ml) and 6.699 log10(CFU/ml) and 7.477 log10(CFU/ml) | killing, average Δlog10(CFU/ml) (non-growing UPEC CFT073; E. coli in LPM (pH 5.5), drug concentration 10): 0.735 log10(CFU/ml) | log10(CFU/ml) of treated nongrowing bacteria (single replicates) (non-growing UPEC CFT073; E. coli in LPM (pH 5.5), drug concentration 10, before treatment 7.350): 6.591 log10(CFU/ml) and 6.255 log10(CFU/ml) and 7.000 log10(CFU/ml) | killing, average Δlog10(CFU/ml) ([1]; drug concentration 0.1): 0.209 log10(CFU/ml) | log10(CFU/ml) of treated nongrowing bacteria (single replicates) ([1]; drug concentration 0.1): 8.477 log10(CFU/ml) and 8.954 log10(CFU/ml) and 8.602 log10(CFU/ml) | killing, average Δlog10(CFU/ml) ([1]; drug concentration 0.5): 1.194 log10(CFU/ml) | log10(CFU/ml) of treated nongrowing bacteria (single replicates) ([1]; drug concentration 0.5): 7.477 log10(CFU/ml) and 7.903 log10(CFU/ml) and 7.699 log10(CFU/ml) | killing, average Δlog10(CFU/ml) ([1]; drug concentration 2.5): 3.719 log10(CFU/ml) | log10(CFU/ml) of treated nongrowing bacteria (single replicates) ([1]; drug concentration 2.5): 5.602 log10(CFU/ml) (2×) and 4.301 log10(CFU/ml) | killing, average Δlog10(CFU/ml) ([1]; drug concentration 10): 4.787 log10(CFU/ml) | log10(CFU/ml) of treated nongrowing bacteria (single replicates) ([1]; drug concentration 10): =<4 log10(CFU/ml) (2×) and 4.301 log10(CFU/ml) | IC50 ([2]; Shigella flexneri, TC7, 14 h): 25 nM | Fluorescence intensity (RFU), Mean, 2 x MIC ([2]; TC7 cells infected with GFP-expressing S. flexneri, 14 h treatment, 2 x MIC): 4963.31 RFU | Fluorescence intensity (RFU), Mean, 4 x MIC ([2]; TC7 cells infected with GFP-expressing S. flexneri, 14 h treatment, 4 x MIC): 3475.06 RFU | Fluorescence intensity (RFU), Mean, 8 x MIC ([2]; TC7 cells infected with GFP-expressing S. flexneri, 14 h treatment, 8 x MIC): 3341.83 RFU | Fluorescence intensity (RFU), Mean, 16 x MIC ([2]; TC7 cells infected with GFP-expressing S. flexneri, 14 h treatment, 16 x MIC): 2905.56 RFU | Fluorescence intensity (RFU), Mean, 32 x MIC ([2]; TC7 cells infected with GFP-expressing S. flexneri, 14 h treatment, 32 x MIC): 2463.67 RFU | Fluorescence intensity (RFU), Mean, MIC ([2]; TC7 cells infected with GFP-expressing S. flexneri, 14 h treatment, MIC): 6769 RFU | killing, average Δlog10(CFU/ml) ([3]; drug concentration 0.1): 0.037 log10(CFU/ml) | log10(CFU/ml) of treated nongrowing bacteria (single replicates) ([3]; drug concentration 0.1): 8.845 log10(CFU/ml) and 9.301 log10(CFU/ml) and 9.033 log10(CFU/ml) | killing, average Δlog10(CFU/ml) ([3]; drug concentration 0.5): 0.330 log10(CFU/ml) | log10(CFU/ml) of treated nongrowing bacteria (single replicates) ([3]; drug concentration 0.5): 8.690 log10(CFU/ml) and 8.869 log10(CFU/ml) and 8.740 log10(CFU/ml) | killing, average Δlog10(CFU/ml) ([3]; drug concentration 2.5): 0.522 log10(CFU/ml) | log10(CFU/ml) of treated nongrowing bacteria (single replicates) ([3]; drug concentration 2.5): 8.580 log10(CFU/ml) and 8.898 log10(CFU/ml) and 8.248 log10(CFU/ml) | killing, average Δlog10(CFU/ml) ([3]; drug concentration 10): 0.688 log10(CFU/ml) | log10(CFU/ml) of treated nongrowing bacteria (single replicates) ([3]; drug concentration 10): 8.531 log10(CFU/ml) and 8.663 log10(CFU/ml) and 8.033 log10(CFU/ml)

— PMC11992225, “Antibacterial compounds against non-growing and intracellular bacteria” (npj Antimicrobials and Resistance, 2025)
